Test results from patent US20250345295A1, “LMK235 COMPOSITIONS AND METHODS” (UNM Rainforest Innovations, priority 2024, published 2025).

System: mice
Experiment: Conditioned place preference (CPP) test of addictive potential
Type: in vivo, mouse
Details: 5 mg/kg, three conditioning days
Text: The conditioned place preference (CPP) test was used to compare morphine and LMK235 post-drug behaviors to baseline. Time spent in their assigned drug administration chamber post-drug was divided by the time spent in the chamber during the baseline recording. A score of 1 meant that there was no difference in time spent in either chamber after dosing. A score greater than 1 meant more time was spent in the assigned drug chamber, and a score less than 1 meant less time was spent in the assigned drug chamber.
Mice were assigned either vehicle, morphine (5 mg/kg) or LMK235 (5 mg/kg) and assigned cubicle designation for groups (n=3) as follows: Vehicle-Blank, Vehicle-Striped, Morphine-Blank, Morphine-Striped, LMK-Blank, LMK-Striped. For baseline collection, mice were placed in the middle of the box and allowed access to both chambers for 15 minutes. Time spent in each chamber was recorded. For the subsequent three test days, mice were injected with their assigned drug and placed in their assigned chamber, without access to the other chamber, for 30 minutes. On the final test day, mice were placed in the middle of the box and allowed access to both chambers for 15 minutes. Time spent in each chamber was recorded.

CN1CC[C@]23c4c5ccc(O)c4O[C@H]2[C@@H](O)C=C[C@H]3[C@H]1C5 [morphine]
time in assigned drug chamber post-drug versus baseline (addictive potential): spent more time in their assigned drug chamber
